# Data from article PMC3574224, “Na^+ Regulation in the Malaria Parasite Plasmodiumfalciparum Involves the Cation ATPase PfATP4 and Is a Target of the Spiroindolone Antimalarials” (Cell Host & Microbe, 2013).
# Experiments:
# [1] = test system: P. falciparum 3D7 trophozoites; assay: microbe, parasite or virus in culture; type: cell-based, Plasmodium falciparum
# Procedure: P. falciparum strains 3D7, Dd2, NITD609-R^Dd2 clone #2, Dd2^attB, and Dd2^attB CAM I398F/P990R were cultured under shaking conditions as described elsewhere ([Allen and Kirk, 2010]). Cultures were synchronized 24 hr before experimentation using 5% w/v sorbitol ([Lambros and Vanderberg, 1979]). All experiments were conducted on mature trophozoite-stage parasites (36–40 hr postinvasion) functionally isolated from their host erythrocytes by permeabilization of the erythrocyte and parasitophorous vacuole membranes by brief exposure to saponin (0.05% w/v) as described previously ([Spillman et al., 2008]).
# (§1) The [Na^+]i of saponin-isolated parasites was measured at 37°C using the Na^+-sensitive dye SBFI (Molecular Probes, Invitrogen) in conjunction with a PerkinElmer LS 50B Fluorescence Spectrometer fitted with a Dual Excitation Fast Filter. Saponin-isolated parasites were loaded with SBFI by suspension (at 1.40–1.80 × 10^8 cells/mL) for 20 min at 37°C in bicarbonate-free RPMI1640 supplemented with 20 mM D-glucose, 0.2 mM hypoxanthine, 25 mM HEPES, and 25 mg/L gentamycin sulfate (pH 7.10), to which SBFI-acetoxymethyl ester (5.5 μM) and Pluronic F-127 (0.01% w/v) were added. The dye-loaded cells were washed twice (12,000 × g, 0.5 min) in bicarbonate-free RPMI then incubated for a further 20 min at 37°C to allow for complete de-esterification of the dye before being resuspended at a final cell concentration of 1.5–2.5 × 10^7 cells/mL in standard saline. The dye-loaded cells were excited at 340 nm and 380 nm with fluorescence recorded at 490 nm. Calibration of the relationship between the 340/380 nm fluorescence ratio and [Na^+]i (see Figures S1A–S1C) was carried out as described previously ([Diarra et al., 2001]; [Harootunian et al., 1989]).
# The initial Na^+ influx rate (at t = 0) is a × Δ[Na^+]i^max.
# (§2) Dose-response curves were obtained using the expression y = y^min + y^max/(1 + [C/IC50]^b), where y is the parameter being measured (parasite proliferation, Na^+ influx, or ATPase activity), y^min is the minimum value of y, y^max is the maximum value of y, C is the concentration of the moiety that was varied in the experiment, IC50 is the concentration at which y was reduced to 50% of y^max, and b is a fitted constant.
# [2] = test system: P. falciparum trophozoites; assay: Cytosolic pH (pHi) in BCECF-loaded saponin-isolated parasites; type: cell-based, Plasmodium falciparum; settings: 50 nM
# Procedure: pHi of saponin-isolated parasites was measured using the pH-sensitive indicator BCECF (Molecular Probes, Invitrogen) as described previously ([Saliba and Kirk, 1999]). […] Critical experiments performed using SBFI-loaded parasites were repeated with parasites loaded with BCECF.
# P. falciparum Dd2 parent [3] = assay: Parasite proliferation, [^3H]hypoxanthine incorporation, Dd2 parent; type: cell-based; settings: Plasmodium falciparum, DD2, read-out: IC50 for inhibition of parasite proliferation by NITD246
# Procedure: Parasite growth assays were performed in 96-well plates over 48 hr (commencing at the ring stage) using a standard [^3H]hypoxanthine incorporation assay ([Desjardins et al., 1979]).
# as §2
# P. falciparum Dd2 parent [4] = assay: Disruption of [Na^+]i regulation, SBFI-loaded trophozoites, Dd2 parent; type: cell-based; settings: Plasmodium falciparum, DD2, read-out: IC50 for disruption of Na^+ regulation by NITD246
# Procedure: as §1, with “1989]). Several inhibitors used in this study caused inner filter effects ([Gu and Kenny, 2009]; [Srinivas and Mutharasan, 1987]); in these cases calibration curves were generated with the inhibitors present. […]” for “1989]).”
# [5] = test system: P. falciparum Dd2^attB parent; assay: Disruption of [Na^+]i regulation, SBFI-loaded trophozoites, Dd2^attB parent; type: cell-based; settings: Plasmodium falciparum, from fitted curves, read-out: IC50 for disruption of Na^+ regulation by NITD246
# Procedure: as §1, with “1989]). Several inhibitors used in this study caused inner filter effects ([Gu and Kenny, 2009]; [Srinivas and Mutharasan, 1987]); in these cases calibration curves were generated with the inhibitors present. […]” for “1989]).”
# [6] = test system: P. falciparum Dd2^attB CAM I398F/P990R (mutant PfATP4 transfectant); assay: Disruption of [Na^+]i regulation, SBFI-loaded trophozoites, Dd2^attB CAM I398F/P990R; type: cell-based; settings: Plasmodium falciparum, from fitted curves, read-out: IC50 for disruption of Na^+ regulation by NITD246
# Procedure: as §1, with “1989]). Several inhibitors used in this study caused inner filter effects ([Gu and Kenny, 2009]; [Srinivas and Mutharasan, 1987]); in these cases calibration curves were generated with the inhibitors present. […]” for “1989]).”
structure (smiles),measurement,setting,value
C[C@H]1Cc2c([nH]c3cc(F)c(F)cc23)[C@@]2(N1)C(=O)Nc1ccc(Cl)cc12 [NITD246],Effect on resting [Na^+]i,"[1]; 50 nM, 3D7, standard saline",immediate rapid increase in [Na^+]i
same,IC50,"[1]; Plasmodium falciparum, concentration causing [Na^+]i to increase from resting value at half the maximal rate, from fitted curves, 3D7, standard saline, read-out: IC50 for disruption of Na^+ regulation",2.1 ± 0.8 nM
same,Rate of increase of [Na^+]i at maximally effective concentrations,[1]; maximally effective concentration,0.092 ± 0.007 mM/s
same,Cytosolic pH (pHi) after addition,"[2]; Na^+-containing medium pH 7.1, increase from 7.33 ± 0.03, n = 6, p = 0.009",7.46 ± 0.02
same,Effect on pHi,[2]; solution containing choline^+ in place of Na^+,no significant effect
same,IC50,P. falciparum Dd2 parent [3],0.08 ± 0.01 nM
same,IC50,P. falciparum Dd2 parent [4],1.6 ± 0.3 nM
same,IC50,[5],1.7 ± 0.5 nM
same,IC50,[6],3.9 ± 1.7 nM
